Measurements published in US7884109B2, “Purine and imidazopyridine derivatives for immunosuppression” (Wyeth LLC, priority 2005, dated 2011).

What follows are compounds tested against T1, Human Jak3 (Homo sapiens, UniProt P52333) (assay: Jak3 Kinase Assay (HTRF, GST-Jak3 catalytic domain)). Settings: (R) and (S) enantiomer pair.
T1 construct: A fragment encoding the catalytic domain of Jak3 (508aa to 1124aa) was ligated with GST at 5′ end; made in house; host or cells: Sf9 insect cells (baculovirus, pFastBac 1)
T1 sequence (P52333 508-1124): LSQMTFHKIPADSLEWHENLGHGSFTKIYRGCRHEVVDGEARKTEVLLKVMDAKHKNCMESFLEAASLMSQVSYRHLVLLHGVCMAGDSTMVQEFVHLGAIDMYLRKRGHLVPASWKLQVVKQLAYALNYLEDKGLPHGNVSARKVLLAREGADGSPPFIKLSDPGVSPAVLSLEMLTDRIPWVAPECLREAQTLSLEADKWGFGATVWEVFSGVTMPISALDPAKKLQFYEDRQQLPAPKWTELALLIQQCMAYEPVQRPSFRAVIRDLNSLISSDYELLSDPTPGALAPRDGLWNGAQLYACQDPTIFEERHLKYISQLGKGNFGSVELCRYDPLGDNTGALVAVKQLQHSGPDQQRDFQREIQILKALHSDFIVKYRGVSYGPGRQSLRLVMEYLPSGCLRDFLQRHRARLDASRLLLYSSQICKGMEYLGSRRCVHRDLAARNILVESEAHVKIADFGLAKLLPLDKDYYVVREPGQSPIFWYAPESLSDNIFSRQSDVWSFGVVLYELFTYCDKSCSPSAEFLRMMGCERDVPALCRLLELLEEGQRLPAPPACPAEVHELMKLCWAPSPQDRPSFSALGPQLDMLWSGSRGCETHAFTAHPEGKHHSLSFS
Format: biochemical
Description: Human Jak3 cDNA was amplified by PCR. A fragment encoding the catalytic domain of Jak3 (508aa to 1124aa) was ligated with GST at 5′ end. This fused GST-Jak3 DNA fragment was cloned into the EcoRI site of the donor plasmid pFastBac 1 (Life Technologies #10359-016). The transformation, transposition, and transfection of insect cells (Sf9) were performed according to the manufacture's instructions. The cell lysate containing recombinant GST-Jak3 was used in the kinase assay. Anti-GST antibody (10 μg/ml, Sigma #G1417) was coated onto a 384-well plate at 4° C. overnight. Cell lysate containing GST-Jak3 (1:100 dilution) was added to the anti-GST coated plates, and GST-Jak3 was captured by immobilized anti-GST antibody. Testing compounds and substrate mix (50 mM HEPES, pH 7, 0.5 mM Na3VO4, 25 mM MgCl2, 1 mM DTT, 0.005% BSA, 1 μM ATP, and 4.5 μg/ml biotinyl poly-Glu,Ala,Tyr) were added to the plate to initiate the reaction. After a 60-min incubation, the reaction was stopped by 4 mM EDTA, and phosphorylation of biotinyl poly-Glu,Ala,Tyr was detected using 17 μg/ml Cy5-streptavidin (Amersham, #PA92005) and 2.7 μg/ml Europium-conjugated anti-phosphotyrosine antibody (PerkinElmer #AD0069) using homogeneous time-resolved fluorescence (HTRF) technology.

`O=c1[nH]c2cnc(-n3cnc4ccccc43)nc2n1[C@@H]1CCOc2c(F)cc(F)cc21` was tested. Which IC50 did it give?
The IC50 was less than 1 µM.

For `O=c1[nH]c2cnc(-n3cnc4ccccc43)nc2n1[C@H]1CCOc2c(F)cc(F)cc21`, which IC50 is on record?
Its IC50 is less than 1 µM.

Same assay, conditions: (R) versus (S) enantiomer

With `O=c1[nH]c2cnc(-n3cnc4ccccc43)nc2n1[C@@H]1CCOc2c(F)cc(F)cc21` as the compound, how does the “Jak3 potency relative to the other enantiomer” value read?
The value was “more potent than its corresponding (S) enantiomer”.

These compounds were tested on IL-2-induced IFN-γ production (assay: IL-2-Induced IFN-γ Production in the Mouse). Settings: po, 1 h, 30 mg/kg by gavage one hour before IL-2, serum IFN-γ, female BALB/c mice, read-out: inhibition of IL-2-induced IFN-gamma production.
Format: in vivo
Description: Administration of IL-2 leads to an increase in serum IFN-γ in the mouse due to NK secretion of the cytokine (Thornton S, Kuhn K A, Finkelman F D and Hirsch R. NK cells secrete high levels of IFN-γ in response to in vivo administration of IL-2. Eur J Immunol 2001 31:3355-3360). The experiment was carried out essentially according to the protocol in Thornton et al. and the test compounds were administered in order to determine the level of inhibition attained. In summary, female BALB/c mice were fasted for 12-18 hours before a study but had free access to water at all times. Test compounds were administered by gavage one hour before intraperitoneal injection of IL-2 and capture antibody. At termination of the studies, the mice were sacrificed by carbon dioxide inhalation, terminal blood samples were collected by cardiac puncture and serum was generated. Serum was stored frozen until it was assayed for IFN-γ, as described by the kit manufacturer (BD Pharmingen™, San Diego, Calif.).

Which inhibition at 30 mg/kg does the source give for `C[C@@H]1CCN(C(=O)CC#N)C[C@@H]1N(C)c1ncnc2[nH]ccc12` [CP690550, reference compound] here?
The inhibition at 30 mg/kg was 96%.

For `O=c1[nH]c2cnc(-n3cnc4ccccc43)nc2n1[C@@H]1CCOc2c(F)cccc21` [Example 114], which inhibition at 30 mg/kg is on record?
Its inhibition at 30 mg/kg is greater than 40%.

For `C[C@H](c1cccnc1)n1c(=O)[nH]c2cnc(-n3cnc4ccccc43)nc21` [Example 120], which inhibition at 30 mg/kg is on record?
The inhibition at 30 mg/kg was greater than 40%.

How did the inhibition at 30 mg/kg turn out when `O=C1CCC(n2c(=O)[nH]c3cnc(-n4cnc5ccccc54)nc32)c2ccccc21` (stereo not shown) [Example 135] was run?
Its inhibition at 30 mg/kg is greater than 40%.

How did the inhibition at 30 mg/kg turn out when `O=c1[nH]c2cnc(-n3cnc4ccc(F)cc43)nc2n1C1CCOc2c(F)cccc21` (stereo not shown) [Example 142] was run?
The inhibition at 30 mg/kg was greater than 40%.

Which inhibition at 30 mg/kg does the source give for `O=c1[nH]c2cnc(-n3cnc4ccccc43)nc2n1C1CCOc2c(F)cc(F)cc21` (stereo not shown) [Example 151] here?
Its inhibition at 30 mg/kg is greater than 40%.

With `O=c1[nH]c2cnc(-n3cnc4ccccc43)nc2n1C1CCOc2c(F)ccc(F)c21` (stereo not shown) [Example 162] as the compound, how does the inhibition at 30 mg/kg read?
The inhibition at 30 mg/kg was greater than 40%.
